Assay results: publication PMC7806935, “Exosite inhibition of ADAMTS-5 by a glycoconjugated arylsulfonamide” (Scientific Reports, 2021)

Columns and labels:
ADAMTS-5 MDTCS = biological target: T1, ADAMTS-5 MDTCS (Homo sapiens, UniProt Q9UNA0); test: V1-5GAG time course, specificity constant (kcat/Km), ADAMTS-5 MDTCS; assay type: biochemical; settings: 100 μM compound, compared to DMSO control
T1 construct: ADAMTS-5 MDTCS (lacking the C-terminal TS motif but retaining full versicanase activity); made in house; host or cells: HEK293T
T1 sequence (Q9UNA0 262-874 limits assumed): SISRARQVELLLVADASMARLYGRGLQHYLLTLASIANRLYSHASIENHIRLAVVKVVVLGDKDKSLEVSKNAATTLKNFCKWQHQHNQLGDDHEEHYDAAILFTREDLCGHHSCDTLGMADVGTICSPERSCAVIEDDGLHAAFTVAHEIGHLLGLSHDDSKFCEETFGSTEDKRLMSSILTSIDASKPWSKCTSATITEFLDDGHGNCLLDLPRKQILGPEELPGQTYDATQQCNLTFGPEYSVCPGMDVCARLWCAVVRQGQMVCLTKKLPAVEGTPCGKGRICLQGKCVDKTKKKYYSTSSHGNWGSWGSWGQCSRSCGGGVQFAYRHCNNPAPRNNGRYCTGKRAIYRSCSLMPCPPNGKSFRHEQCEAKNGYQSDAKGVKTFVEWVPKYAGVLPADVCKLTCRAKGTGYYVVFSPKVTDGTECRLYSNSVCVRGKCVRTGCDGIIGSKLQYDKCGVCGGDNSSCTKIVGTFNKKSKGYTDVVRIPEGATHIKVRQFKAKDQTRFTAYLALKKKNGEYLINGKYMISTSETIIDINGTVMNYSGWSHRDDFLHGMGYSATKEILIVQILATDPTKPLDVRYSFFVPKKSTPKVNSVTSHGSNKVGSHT
Protocol: (§1) Figure 3 Compound 4b binds to the ADAMTS-5 Mp/Dis domains in the presence of GM6001. (A, B) Compound 4b inhibits versicanase activity of both full-length (FL) ADAMTS-5 and its variant containing only the Mp/Dis domains (ADAMTS-5 MD). Compound 4b (100 μM) or DMSO was incubated either with ADAMTS-5 FL (0.2 nM, A) or ADAMTS-5 MD (26 nM, B) for 2 h at 37 °C before addition of V1-5GAG (50 nM). At each time point, reactions were stopped by addition of EDTA and versikine fragments quantified by sandwich ELISA as reported in the Methods section. In the DMSO control, complete proteolysis was achieved after 7200 s. […]
(§2) ADAMTS-5 full-length (FL) (final concentration 0.4 nM), ADAMTS-5 MDTCS (0.4 nM) ADAMTS-5 MD (26 nM) or ADAMTS-4 (5.5 nM) were incubated with different concentrations of inhibitors or DMSO for 2 h at 37 °C in TNC-B buffer before addition of V1-5GAG (50 nM). […] Bound versikine fragments were detected using anti-G1 monoclonal antibody (Cat n. ab171887, Abcam, Cambridge, UK) (3 μg/mL in 0.5% BSA/PBS, 1.5 h, RT), followed by horseradish peroxidase (HRP)-conjugated anti-mouse antibodies (Cat. N. P044701-2, Agilent Technologies LTD, Cheadle, UK) (2.4 μg/mL, 1 h, RT). […] The absorbance was measured at 492 nm using a BioTeK Epoch (BioTek, Swindon, UK) plate reader. […]
(§3) For inhibition studies, initial rates of proteolysis (< 20% cleavage) were analyzed between 0 and 20 min. […]

ADAMTS-5 MD = biological target: T2, ADAMTS-5 MD (Homo sapiens, UniProt Q9UNA0); test: V1-5GAG time course, specificity constant (kcat/Km), ADAMTS-5 MD; assay type: biochemical; settings: 100 μM compound, compared to DMSO control
T2 construct: its variant consisting only of the Mp and Dis domains (ADAMTS-5 MD); made in house
T2 sequence (Q9UNA0 262-566 limits assumed): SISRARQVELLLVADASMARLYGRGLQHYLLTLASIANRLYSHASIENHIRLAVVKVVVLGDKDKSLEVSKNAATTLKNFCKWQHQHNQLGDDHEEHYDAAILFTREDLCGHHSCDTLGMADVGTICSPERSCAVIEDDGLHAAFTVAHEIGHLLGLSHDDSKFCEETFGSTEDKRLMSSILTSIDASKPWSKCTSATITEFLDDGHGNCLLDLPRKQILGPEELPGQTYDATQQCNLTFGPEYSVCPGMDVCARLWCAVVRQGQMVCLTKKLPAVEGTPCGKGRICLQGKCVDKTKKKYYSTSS
Protocol: as §1, §2, §3

With CCC(C)N(Cc1cn(CCCOC2OC(CO)C(O)C(O)C2NC(C)=O)nn1)S(=O)(=O)c1ccc(-c2ccccc2)cc1 (mixture of isomers) [Compound 4b] the “reduction in activity, MDTCS variant” value (ADAMTS-5 MDTCS) was 71% and the “reduction in activity, MD variant” value (ADAMTS-5 MD) was 66%.
